Reference: PMC10657792, “Downstream Allosteric Modulation of NMDA Receptors by 3-Benzazepine Derivatives” (Molecular Neurobiology, 2023)

Assays:
Assay type in all cases: cell-based
GluN1a wt/ GluN2B F114A = GluN1a wt/ GluN2B F114A (Rattus norvegicus, UniProt P35439+Q00960, F114A); experiment: TEVC recording in X. laevis oocytes, GluN2B mutant screening; settings: fitted curve
GluN1a wt/ GluN2B F176A = GluN1a wt/ GluN2B F176A (Rattus norvegicus, UniProt P35439+Q00960, F176A); experiment: as above; settings: fitted curve
Procedure: (§1) Single point mutations were incorporated into template DNA (GluN1-1b wt/ pSGEM and GluN2B wt/ pSGEM) by using the QuikChange II XL site-directed mutagenesis kit (Agilent Technologies, Germany). Mutagenesis primers were designed using the QuikChange Primer Design Program (Agilent) and provided by Microsynth (Microsynth AG, Balgach, Switzerland). For mutation of the desired amino acid in the gene, PCR amplification was performed with the respective mutagenesis primers (Eppendorf MasterCycler Gradient, Eppendorf Hamburg, Germany). Mutations were verified by automated DNA sequencing. Constructs were linearized with PacI (GluN1) or NheI (GluN2B). cRNA was prepared byin vitrotranscription using the mMessage mMachine T7 kit (Life Technologies, Darmstadt, Germany).
(§2) The NMDAR was expressed in stage V and VI oocytes originated from X. laevis. Oocytes were provided by Ecocyte Bioscience (Dortmund, Germany), and equimolar amounts of wild-type and mutated GluN1 and GluN2B cRNA were injected (0.8 ng each). The oocytes were incubated in Barth’s solution, containing (mmol l^−1): 88 NaCl, 1 KCl, 0.4 CaCl2, 0.33 Ca(NO3)2, 0.6 MgSO4, 5 TRIS–HCl, 2.4 NaHCO3, supplemented with 80 mg l^−1 theophylline, 63 mg l^−1 benzylpenicillin, 40 mg l^−1 streptomycin, and 100 mg l^−1 gentamycin and maintained at 18 °C until usage. After injection, the oocytes were incubated for 5 days at 18 °C. Subsequently, the activity of the expressed NMDARs in the oocytes was recorded by two-electrode voltage clamp (TEVC).
(§3) The compounds were retrieved as 10 mM stock solutions in DMSO and were subsequently diluted with agonist solution and adjusted to 0.1% DMSO concentration. Inhibition of each compound was measured via TEVC in X. laevis oocytes at room temperature using a Turbo Tec 10CX amplifier (NPI electronic, Tamm, Germany), NI USB 6221 DA/AD Interface (National Instruments, Austin, USA), and GePulse Software (Dr. Michael Pusch, Genova, Italy). Ba^2+-Ringer, consisting of 10 mM HEPES, 90 mM NaCl, 1 mM KCl, and 1.5 mM BaCl2, adjusted to pH 7.4, was used for TEVC measurements. Agonist solution containing 10 µM glycine and 10 µM (S)-glutamate was prepared in Ba^2+-Ringer, and the measurements were performed at a holding potential of − 70 mV, using electrodes with a glass capillary filled with 3 M KCl and a resistance between 0.5 and 1.5 MΩ. The compounds were tested by applying ascending concentrations, ranging from 1 to 30,000 nM, in at least six oocytes. Example traces for all recorded conditions can be found in Supplementary Figs. S2–S9.
(§4) TEVC data were analyzed using Ana (Dr. Michael Pusch, Genova, Italy), and statistics were performed using OriginPro 2020 (OriginLab Corporation, Northampton, USA). The inhibitory effect of each compound is calculated using the following equation: inhibition=1-Ic-Ih/Ia-Ih where Ih describes the current in the absence of agonists; Ia represents the steady-state current in the presence of the agonists; and Ic is defined as the steady-state after binding of agonist and compound. All dose response curves are fitted to the following logistic equation: y=A1-A2/1+x/x0^p+A2 where A1 describes the minimal inhibition of a compound and was set to 0; A2 represents the maximal inhibition of a compound; p is the slope of the curve; x0 is defined as the concentration at half-maximal inhibition; and x is the tested concentration. Data were statistically analyzed by one-way ANOVA and Tukey post-hoc mean comparison test in OriginPro 2020 (OriginLab Corporation, Northampton, USA). p values are indicated by * for p < 0.05, ** for p < 0.01, and *** for p < 0.001.

GluN1b wt/ GluN2B E236A = GluN1b wt/ GluN2B E236A (Rattus norvegicus, UniProt P35439+Q00960, E236A); experiment: as above
Procedure: as §1, §2, §3, §4

GluN1b wt/ GluN2B F194A = GluN1b wt/ GluN2B F194A (Rattus norvegicus, UniProt P35439+Q00960, F194A); experiment: as above
Procedure: as §1, §2, §3, §4

[1] = molecular target: GluN1b wt/ GluN2B N192A/F194A (Rattus norvegicus, UniProt P35439+Q00960, F194A/N192A); experiment: as above
Procedure: as §1, §2, §3, §4

GluN1b wt/ GluN2B Q110A = GluN1b wt/ GluN2B Q110A (Rattus norvegicus, UniProt P35439+Q00960, Q110A); experiment: as above
Procedure: as §1, §2, §3, §4

GluN1a wt/ GluN2B wt = GluN1a wt/ GluN2B wt (Rattus norvegicus, UniProt P35439+Q00960); experiment: TEVC recording in X. laevis oocytes in the presence of agonists and 200 µM spermine; settings: agonists + 200 µM spermine; fitted curve
Procedure: as §2
as §3, with “The compounds were tested by applying ascending concentrations, ranging from 1 to 30,000 nM, in at least six oocytes.” left out
as §4, with “All dose response curves are fitted to the following logistic equation: y=A1-A2/1+x/x0^p+A2 where A1 describes the minimal inhibition of a compound and was set to 0; A2 represents the maximal inhibition of a compound; p is the slope of the curve; x0 is defined as the concentration at half-maximal inhibition; and x is the tested concentration.” left out
The NMDAR is probably modulated by polyamines such as spermine and spermidine in a similar way to exon 5 [22]. As described above, we recorded GluN1-1a/GluN2B and GluN1-1b/GluN2B expressing oocytes with 200 µM spermine and ascending concentrations of (R)-OF-NB1, to examine if the allosteric effects are mechanically in conjunction or can be potentiated. […]

[2] = agonists 10 µM glycine + 10 µM (S)-glutamate, fitted curve

Sequence of GluN1b wt/ GluN2B F194A (Q00960 27-1482 F194A, other chains not shown): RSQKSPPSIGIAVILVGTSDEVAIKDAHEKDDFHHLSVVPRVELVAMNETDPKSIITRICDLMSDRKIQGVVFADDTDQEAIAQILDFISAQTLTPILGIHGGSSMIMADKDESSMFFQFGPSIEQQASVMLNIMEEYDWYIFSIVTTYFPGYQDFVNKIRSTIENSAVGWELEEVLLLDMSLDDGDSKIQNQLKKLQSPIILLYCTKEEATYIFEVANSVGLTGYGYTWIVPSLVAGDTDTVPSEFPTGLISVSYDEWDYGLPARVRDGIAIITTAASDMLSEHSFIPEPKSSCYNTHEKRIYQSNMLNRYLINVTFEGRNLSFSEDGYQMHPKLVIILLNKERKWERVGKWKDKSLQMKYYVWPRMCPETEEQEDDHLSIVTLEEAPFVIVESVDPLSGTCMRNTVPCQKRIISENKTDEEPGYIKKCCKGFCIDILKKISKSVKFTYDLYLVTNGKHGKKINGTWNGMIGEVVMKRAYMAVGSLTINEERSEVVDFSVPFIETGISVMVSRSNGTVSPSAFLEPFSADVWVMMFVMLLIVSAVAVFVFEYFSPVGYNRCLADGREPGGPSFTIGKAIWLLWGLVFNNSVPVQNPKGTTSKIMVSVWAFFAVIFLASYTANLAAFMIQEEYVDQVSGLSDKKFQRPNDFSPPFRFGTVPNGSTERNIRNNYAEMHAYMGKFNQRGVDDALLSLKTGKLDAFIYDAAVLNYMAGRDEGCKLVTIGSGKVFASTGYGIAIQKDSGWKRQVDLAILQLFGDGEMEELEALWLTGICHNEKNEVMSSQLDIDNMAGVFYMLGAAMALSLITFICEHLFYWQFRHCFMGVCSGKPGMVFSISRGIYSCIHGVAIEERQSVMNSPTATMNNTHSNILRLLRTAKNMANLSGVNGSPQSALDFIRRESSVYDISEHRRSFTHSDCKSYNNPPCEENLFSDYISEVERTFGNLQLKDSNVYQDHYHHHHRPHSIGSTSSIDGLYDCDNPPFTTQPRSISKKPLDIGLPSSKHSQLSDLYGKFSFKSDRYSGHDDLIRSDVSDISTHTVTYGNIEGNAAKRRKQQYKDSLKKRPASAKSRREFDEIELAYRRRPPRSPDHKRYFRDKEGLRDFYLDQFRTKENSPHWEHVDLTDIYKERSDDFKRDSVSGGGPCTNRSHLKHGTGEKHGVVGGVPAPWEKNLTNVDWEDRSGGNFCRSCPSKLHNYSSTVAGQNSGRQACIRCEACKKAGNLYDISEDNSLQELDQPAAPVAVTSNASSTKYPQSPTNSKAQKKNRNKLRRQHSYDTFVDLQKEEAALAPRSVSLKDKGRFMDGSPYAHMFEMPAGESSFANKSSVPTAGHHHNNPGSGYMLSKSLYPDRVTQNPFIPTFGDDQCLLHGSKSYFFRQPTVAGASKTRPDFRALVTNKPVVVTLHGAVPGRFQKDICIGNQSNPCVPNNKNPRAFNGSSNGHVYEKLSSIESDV
Sequence of GluN1b wt/ GluN2B Q110A (Q00960 27-1482 Q110A, other chains not shown): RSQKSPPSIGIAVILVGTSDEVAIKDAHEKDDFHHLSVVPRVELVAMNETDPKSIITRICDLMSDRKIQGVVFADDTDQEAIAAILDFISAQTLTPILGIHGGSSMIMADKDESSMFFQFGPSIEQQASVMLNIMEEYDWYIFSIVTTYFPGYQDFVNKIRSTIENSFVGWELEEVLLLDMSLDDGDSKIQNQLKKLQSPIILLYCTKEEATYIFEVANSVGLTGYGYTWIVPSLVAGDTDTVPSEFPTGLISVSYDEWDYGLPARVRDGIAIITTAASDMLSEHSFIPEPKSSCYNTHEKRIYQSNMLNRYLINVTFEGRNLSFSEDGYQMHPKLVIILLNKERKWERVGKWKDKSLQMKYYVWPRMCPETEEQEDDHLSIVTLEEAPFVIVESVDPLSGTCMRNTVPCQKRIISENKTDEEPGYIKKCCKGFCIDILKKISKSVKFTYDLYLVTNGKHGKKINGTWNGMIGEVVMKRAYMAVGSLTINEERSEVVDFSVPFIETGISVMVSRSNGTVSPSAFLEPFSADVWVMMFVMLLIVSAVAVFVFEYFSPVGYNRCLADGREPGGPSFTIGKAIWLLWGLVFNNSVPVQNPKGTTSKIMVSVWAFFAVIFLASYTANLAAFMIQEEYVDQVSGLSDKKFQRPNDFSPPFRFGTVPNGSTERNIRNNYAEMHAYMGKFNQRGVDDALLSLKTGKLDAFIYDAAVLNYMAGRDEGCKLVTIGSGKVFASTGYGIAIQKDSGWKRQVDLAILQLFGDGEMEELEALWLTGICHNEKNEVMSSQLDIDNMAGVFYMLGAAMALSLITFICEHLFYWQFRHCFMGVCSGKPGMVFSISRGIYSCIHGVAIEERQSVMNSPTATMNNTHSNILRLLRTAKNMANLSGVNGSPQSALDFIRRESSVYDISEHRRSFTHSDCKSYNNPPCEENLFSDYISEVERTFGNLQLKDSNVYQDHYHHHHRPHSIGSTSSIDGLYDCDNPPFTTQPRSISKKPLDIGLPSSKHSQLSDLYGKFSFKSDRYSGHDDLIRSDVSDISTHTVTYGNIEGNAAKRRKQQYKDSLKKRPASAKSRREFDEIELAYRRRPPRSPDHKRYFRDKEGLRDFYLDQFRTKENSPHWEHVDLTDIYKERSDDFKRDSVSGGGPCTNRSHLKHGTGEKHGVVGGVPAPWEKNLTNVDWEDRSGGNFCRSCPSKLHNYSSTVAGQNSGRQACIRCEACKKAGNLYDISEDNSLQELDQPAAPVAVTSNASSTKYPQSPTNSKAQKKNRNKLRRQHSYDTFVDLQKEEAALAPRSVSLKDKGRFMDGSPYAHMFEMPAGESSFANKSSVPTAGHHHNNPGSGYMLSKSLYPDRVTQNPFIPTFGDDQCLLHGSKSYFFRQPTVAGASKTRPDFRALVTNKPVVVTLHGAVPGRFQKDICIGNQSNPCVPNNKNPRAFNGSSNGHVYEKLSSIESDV
Sequence of GluN1b wt/ GluN2B E236A (Q00960 27-1482 E236A, other chains not shown): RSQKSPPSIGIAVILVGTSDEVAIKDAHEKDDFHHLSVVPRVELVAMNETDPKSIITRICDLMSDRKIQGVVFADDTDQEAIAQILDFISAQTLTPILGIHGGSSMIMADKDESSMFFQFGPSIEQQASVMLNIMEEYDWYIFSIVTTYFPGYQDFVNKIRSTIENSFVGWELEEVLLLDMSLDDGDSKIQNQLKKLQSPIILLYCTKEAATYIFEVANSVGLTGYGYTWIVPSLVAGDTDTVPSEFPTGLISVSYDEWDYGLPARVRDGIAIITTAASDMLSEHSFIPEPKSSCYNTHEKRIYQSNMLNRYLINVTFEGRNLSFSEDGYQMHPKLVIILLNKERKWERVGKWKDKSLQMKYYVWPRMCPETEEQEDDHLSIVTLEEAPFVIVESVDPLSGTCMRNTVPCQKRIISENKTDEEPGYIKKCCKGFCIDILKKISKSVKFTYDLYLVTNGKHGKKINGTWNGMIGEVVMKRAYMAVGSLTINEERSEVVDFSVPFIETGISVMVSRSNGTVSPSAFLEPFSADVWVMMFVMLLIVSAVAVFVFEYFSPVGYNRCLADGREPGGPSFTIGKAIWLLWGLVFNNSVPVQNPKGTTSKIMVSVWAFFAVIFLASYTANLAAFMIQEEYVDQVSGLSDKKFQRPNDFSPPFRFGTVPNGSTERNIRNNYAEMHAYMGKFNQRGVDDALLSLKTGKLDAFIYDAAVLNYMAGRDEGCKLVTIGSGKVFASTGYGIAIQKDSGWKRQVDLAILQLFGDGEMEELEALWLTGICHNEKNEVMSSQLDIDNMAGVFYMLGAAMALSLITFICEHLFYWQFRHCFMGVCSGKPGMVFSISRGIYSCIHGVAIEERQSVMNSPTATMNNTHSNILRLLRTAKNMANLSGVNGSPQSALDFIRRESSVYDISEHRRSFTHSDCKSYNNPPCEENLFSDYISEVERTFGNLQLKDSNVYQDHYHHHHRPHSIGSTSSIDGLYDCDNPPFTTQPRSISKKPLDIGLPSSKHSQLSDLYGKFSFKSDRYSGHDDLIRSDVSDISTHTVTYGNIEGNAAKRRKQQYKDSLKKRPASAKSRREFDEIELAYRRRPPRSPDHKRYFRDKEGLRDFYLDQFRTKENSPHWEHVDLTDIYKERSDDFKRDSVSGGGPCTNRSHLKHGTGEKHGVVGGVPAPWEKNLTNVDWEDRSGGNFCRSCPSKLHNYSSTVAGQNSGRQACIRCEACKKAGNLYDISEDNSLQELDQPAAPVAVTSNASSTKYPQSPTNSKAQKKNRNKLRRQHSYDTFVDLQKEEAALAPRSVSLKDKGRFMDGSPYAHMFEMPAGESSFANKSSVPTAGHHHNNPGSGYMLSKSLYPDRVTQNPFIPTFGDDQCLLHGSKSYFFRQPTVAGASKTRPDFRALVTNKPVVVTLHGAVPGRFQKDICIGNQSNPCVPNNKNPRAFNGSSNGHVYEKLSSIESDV

IC50 (GluN1a wt/ GluN2B F114A; agonists 10 µM glycine + 10 µM (S)-glutamate): 6.58 µM
Hill coefficient (GluN1a wt/ GluN2B F114A): 0.8
Hill coefficient (GluN1a wt/ GluN2B F176A): 0.5
inhibition at 1 µM (GluN1b wt/ GluN2B E236A; GluN1-1b/E236A, compound concentration 1 μM, single oocytes): 39.5%
inhibition at 10 µM (GluN1b wt/ GluN2B E236A; GluN1-1b/E236A, compound concentration 10 μM, single oocytes): 51.9%
inhibition at 30 µM (GluN1b wt/ GluN2B E236A; GluN1-1b/E236A, compound concentration 30 μM, single oocytes): 61.6%
IC50 (GluN1b wt/ GluN2B E236A; [2]): 3.15 µM
Hill coefficient (GluN1b wt/ GluN2B E236A; fitted curve): 0.6
inhibition at 1 µM (GluN1b wt/ GluN2B F194A; GluN1-1b GluN2B F194A, compound concentration 1 μM, single oocytes): 39.3%
inhibition at 30 µM (GluN1b wt/ GluN2B F194A; GluN1-1b GluN2B F194A, compound concentration 30 μM, single oocytes): 51.8%
IC50 (GluN1b wt/ GluN2B F194A; [2]): 3.84 µM
Hill coefficient (GluN1b wt/ GluN2B F194A; fitted curve): 0.5
inhibition at 1 µM ([1]; GluN1-1b GluN2B N192A/F194A, compound concentration 1 μM, single oocytes): 23.8%
inhibition at 10 µM ([1]; GluN1-1b GluN2B N192A/F194A, compound concentration 10 μM, single oocytes): 35.6%
inhibition at 30 µM ([1]; GluN1-1b GluN2B N192A/F194A, compound concentration 30 μM, single oocytes): 37%
IC50 [1, 2]: 7.52 µM
Hill coefficient ([1]; fitted curve): 0.3
inhibition at 10 µM (GluN1b wt/ GluN2B Q110A; GluN1-1b/Q110A, compound concentration 10 μM, single oocytes): 78.4%
inhibition at 30 µM (GluN1b wt/ GluN2B Q110A; GluN1-1b/Q110A, compound concentration 30 μM, single oocytes): 84.2%
IC50 (GluN1b wt/ GluN2B Q110A; [2]): 0.519 µM
Hill coefficient (GluN1b wt/ GluN2B Q110A; fitted curve): 1.2
Hill coefficient (GluN1a wt/ GluN2B wt): 1.4
IC50 (GluN1a wt/ GluN2B wt): 0.359 µM
Structure (SMILES): Oc1ccc2c(c1)CCN(CCCCc1ccccc1F)C[C@@H]2O [(R)-OF-NB1]
